Experimental data taken from publication PMC8893300, “A Dynamic Mass Redistribution Assay for the Human Sweet Taste Receptor Uncovers G-Protein Dependent Biased Ligands” (Frontiers in Pharmacology, 2022).
pEC50: −log10 of the molar value. Like-named read-outs stand apart in the source and are kept apart here.

What was measured:
[1] = system: parental U2OS cells; assay: DMR assay on parental U2OS cells (receptor-independent responses); format: cell-based
Protocol: The plates were incubated in the tissue culture hood for 20 min to allow cells to settle evenly at the bottom of the microplate and further cultured at 37°C in an atmosphere of 5% CO2 for 18–24 h. The next day, the cells were subjected to functional analysis using DMR. The lidded Epic® 384 microplate and polypropylene compound plate (Corning) were loaded into the carousel of the Epic® reader, the target plate was washed with DMSO matched D-PBS using the Corning Epic® Liquid Handling Accessory (LHA) and equilibrated in 25 μl of DMSO matched D-PBS for 90 min. […] When indicated, data for agonist dose-responses were normalized to data obtained with a maximum concentration of sucralose (1 mM) and then fitted and plotted using GraphPad Prism (San Diego, CA) and non-linear regression analysis.

[2] = biological target: T1, human sweet taste receptor (hT1R2/hT1R3) (Homo sapiens, UniProt Q7RTX0+Q8TE23); assay: DMR assay (Epic reader) on R2/R3 U2OS cells, endogenous G proteins; format: cell-based
T1 construct: expressed in transfected cells
T1 sequence (Q8TE23 20-839): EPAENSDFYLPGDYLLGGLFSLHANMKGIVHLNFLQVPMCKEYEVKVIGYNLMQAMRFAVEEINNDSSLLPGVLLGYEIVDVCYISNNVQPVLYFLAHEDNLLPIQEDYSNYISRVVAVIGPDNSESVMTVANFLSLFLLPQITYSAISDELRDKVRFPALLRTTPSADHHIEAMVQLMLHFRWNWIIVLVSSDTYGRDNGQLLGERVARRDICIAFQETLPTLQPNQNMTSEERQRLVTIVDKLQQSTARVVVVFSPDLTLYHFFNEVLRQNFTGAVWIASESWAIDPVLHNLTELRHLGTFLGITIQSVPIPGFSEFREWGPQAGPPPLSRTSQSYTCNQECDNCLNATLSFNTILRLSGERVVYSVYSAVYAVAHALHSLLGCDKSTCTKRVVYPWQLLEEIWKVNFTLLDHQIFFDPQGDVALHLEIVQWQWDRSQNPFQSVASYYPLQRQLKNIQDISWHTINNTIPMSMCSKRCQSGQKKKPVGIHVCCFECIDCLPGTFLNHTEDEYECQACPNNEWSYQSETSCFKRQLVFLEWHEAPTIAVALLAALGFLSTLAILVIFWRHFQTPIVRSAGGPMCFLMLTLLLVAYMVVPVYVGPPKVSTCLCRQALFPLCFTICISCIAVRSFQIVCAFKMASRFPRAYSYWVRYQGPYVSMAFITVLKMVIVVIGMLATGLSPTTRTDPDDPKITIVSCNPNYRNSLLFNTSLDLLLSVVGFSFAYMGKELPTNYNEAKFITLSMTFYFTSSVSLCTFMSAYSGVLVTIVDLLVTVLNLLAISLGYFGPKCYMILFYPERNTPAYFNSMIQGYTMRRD
T1 sequence (Q7RTX0 21-852): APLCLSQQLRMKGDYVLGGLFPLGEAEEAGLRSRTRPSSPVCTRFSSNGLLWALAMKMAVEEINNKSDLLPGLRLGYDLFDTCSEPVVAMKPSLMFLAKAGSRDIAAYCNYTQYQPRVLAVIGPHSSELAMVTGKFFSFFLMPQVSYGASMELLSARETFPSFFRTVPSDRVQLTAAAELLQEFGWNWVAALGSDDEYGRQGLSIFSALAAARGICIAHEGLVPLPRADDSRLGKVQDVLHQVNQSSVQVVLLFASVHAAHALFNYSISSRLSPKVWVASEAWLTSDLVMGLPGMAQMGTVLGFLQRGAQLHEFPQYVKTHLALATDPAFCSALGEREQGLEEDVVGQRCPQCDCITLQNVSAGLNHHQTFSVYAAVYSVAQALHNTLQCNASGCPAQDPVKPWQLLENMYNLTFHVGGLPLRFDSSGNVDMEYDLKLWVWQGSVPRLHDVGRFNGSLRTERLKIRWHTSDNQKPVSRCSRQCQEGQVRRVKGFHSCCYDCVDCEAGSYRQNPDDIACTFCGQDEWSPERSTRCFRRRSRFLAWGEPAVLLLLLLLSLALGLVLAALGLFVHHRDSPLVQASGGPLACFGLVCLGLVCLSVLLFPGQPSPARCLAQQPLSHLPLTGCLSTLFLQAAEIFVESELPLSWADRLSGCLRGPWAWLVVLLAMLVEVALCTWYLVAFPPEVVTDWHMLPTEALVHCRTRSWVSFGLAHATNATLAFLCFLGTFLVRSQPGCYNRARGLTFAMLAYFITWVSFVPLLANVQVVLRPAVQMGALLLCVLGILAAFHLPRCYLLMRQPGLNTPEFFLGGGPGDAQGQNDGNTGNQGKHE
Protocol: The plates were incubated in the tissue culture hood for 20 min to allow cells to settle evenly at the bottom of the microplate and further cultured at 37°C in an atmosphere of 5% CO2 for 18–24 h. The next day, the cells were subjected to functional analysis using DMR. […] When indicated, data for agonist dose-responses were normalized to data obtained with a maximum concentration of sucralose (1 mM) and then fitted and plotted using GraphPad Prism (San Diego, CA) and non-linear regression analysis.
(§1) This value, that we termed pEC50Ratio (sucralose) or pEC50R (sucralose), was calculated with EC50 values obtained in the two assay systems. This transformation also allowed determination of an average and a standard error for the pEC50R (sucralose). The two sets of data (DMR and FLIPR data) were then analyzed with an un-paired t-test (α = 0.05). To calculate relative efficacy bias between the two assays, we captured the top asymptote value from each activity-normalized dose-response curve, as provided by the curve fit, calculated an average and a standard deviation (sd) for each agonist and then analyzed the data pairs with an un-paired t-test (α = 0.05). […] The following steps were followed: 1) Using the PRISM software, we re-analyzed each ligand’s dose-response data obtained in each assay with non-linear regression and the users-defined equation “New Operational Model with TauKa ratios” and retrieved logR values from the fits. 2) Subtracted each ligand’s logR value with that of our standard, the sucralose logR value, obtained from the same data set (each ligand dose-response assay data used in this analysis was accompanied with a sucralose dose-response ran on the same day), producing the ΔlogR value for leach ligand in each assay. 3) Calculated the mean and SEM from ΔlogR replicates (from three to nine independent dose-response analysis, in the two different assays). 4) Calculated ΔΔlogR values by subtracting the averaged ligands’ ΔlogR FLIPR values with the averaged ligands’ ΔlogR DMR values.

[3] = biological target: T2, human sweet taste receptor (hT1R2/hT1R3) coupled to Gα15 (Homo sapiens, UniProt Q7RTX0+Q8TE23); assay: FLIPR calcium mobilization assay, R2/R3 U2OS cells transduced with Gα15 baculovirus; format: cell-based
T2 construct: expressed in transfected cells
T2 sequence (Q8TE23 20-839): T1 sequence (Q8TE23 20-839)
T2 sequence (Q7RTX0 21-852): T1 sequence (Q7RTX0 21-852)
Protocol: The Gα15 coding sequence was inserted in the HindIII-NotI sites and recombinant virus was generated using the Bac-to-Bac system (Life Technologies). Virus was further amplified by propagation in Sf9 cells grown in suspension using Sf900-II media. Virus titers were determined by plaque assay on Sf9 cells.
Cells were gently mixed with the virus at a multiplicity of infection (MOI) of 5. Using a multidrop, 70 μl per well of the cell and virus mixture was dispensed in a 384-well clear bottom plate (Fisher). After 24 h of incubation in a humidified 37°C tissue culture incubator, trichostatin A was added to a final concentration of 0.3 μM and the cells were incubated for another 18–24 h at 34°C. On the day of the experiment, cells were loaded with 4 μM of the calcium indicator Fluo-4 AM (Invitrogen) in D-PBS for 1 h at room temperature. After washing the cells with D-PBS using a cell washer (BioTek) and a 30-minute rest time, the cell plate and the compound plate were transferred into the FLIPR-Tetra (Molecular Devices). […] Loading and the FLIPR assay were run as described above. When indicated, data for agonist dose-responses were normalized to data obtained with a maximum concentration of sucralose (1 mM) and then fitted and plotted using GraphPad Prism (San Diego, CA) and non-linear regression analysis.
as §1

[4] = system: carbachol response in R2/R3 U2OS cells; assay: Pathway blockers on carbachol-mediated DMR response in R2/R3 U2OS cells
Protocol: (§2) Blocker stocks (250x) were prepared in DMSO or water and stored as aliquots at −20°C. Just before use, they were diluted to 2X their final concentration in assay buffer (D-PBS) at a final concentration of 0.4% DMSO. Concentrated stock solutions of the agonists somatostatin, carbachol, EGF, and sucralose were made in water or D-PBS while S1P was made up in 50% EtOH. Just before use, the agonists were diluted to 5X their final concentration in D-PBS at a final concentration of 0.4% DMSO. Final agonist concentrations were 10 μM somatostatin, 100 μM carbachol, 100–300 ng/ml EGF, 2 mM sucralose and 1 μM S1P. R2/R3 U2OS cells were plated as described above. The following day cells were washed on the Epic® with D-PBS/0.4% DMSO leaving a residual volume of 10 μl. 10 μl of D-PBS/0.4% DMSO was added to each well by hand followed by 20 μl of 2X pathway blocker. Cell plates were equilibrated on the Epic® for 90 min. After recording the baseline activity for 5 min, 10 μl of 5X agonist was added using the LHA and the DMR responses were monitored for an additional 40 min.
(§3) Cells were equilibrated at room temperature for 90 min in the Epic® reader with the indicated concentrations of pathway blockers or latrunculin A. In the case of PTx, cells were incubated over night at 37°C and on the day of the experiment PTx was replaced with buffer and cells were equilibrated in the Epic® reader as described above. A 5x-concentrated stock of agonist was then added onto the cells and DMR responses were recorded as described in Materials and Methods. […] Two to eight independent experiments were conducted with each blocker (number of independent experiments are indicated on the bar graph).

[5] = system: somatostatin response in R2/R3 U2OS cells; assay: Pathway blockers on somatostatin-mediated DMR response in R2/R3 U2OS cells
Protocol: as §2, §3

[6] = system: S1P response in R2/R3 U2OS cells; assay: Pathway blockers on S1P-mediated DMR response in R2/R3 U2OS cells
Protocol: as §2, §3

[7] = system: EGF response in R2/R3 U2OS cells; assay: Pathway blockers on EGF-mediated DMR response in R2/R3 U2OS cells; conditions: 100–300 ng/ml EGF
Protocol: as §2, §3

[8] = system: sucralose response (sweet taste receptor) in R2/R3 U2OS cells; assay: Pathway blockers on sucralose-mediated DMR response in R2/R3 U2OS cells
Protocol: as §2, §3

COc1ccc(OC(C)C(=O)O)cc1 (centres unmarked) [lactisole, 2-(4-methoxyphenoxy)-propionic acid]
DMR response on parental U2OS cells, in words [1]: positive DMR response

OC[C@H]1O[C@H](O[C@]2(CCl)O[C@H](CCl)[C@@H](O)[C@@H]2O)[C@H](O)[C@@H](O)[C@H]1Cl [Sucralose]
time of peak DMR response post-stimulation ([2]; R2/R3 U2OS cells): ~4 min | pEC50 ([2]; R2/R3 U2OS cells, peak DMR response, read-out: Activity in DMR assay EC50): 3.79 | EC50 ([2]; R2/R3 U2OS cells, peak DMR response, read-out: Activity in DMR assay pEC50 (converted)): 150 µM | dose-response curve's top asymptote in the DMR assay ([2]; relative to response at 1 mM sucralose): around 122% | Activity in DMR assay Emax ([2]; top asymptote of dose-response normalized to 1 mM sucralose): 122 | dose-response curve's top asymptote in the FLIPR assay ([3]; Gα15, relative to response at 1 mM sucralose): 104% | Activity in FLIPR assay Emax ([3]; Gα15, top asymptote of dose-response normalized to 1 mM sucralose): 104 | pEC50 ([3]; R2/R3 U2OS cells expressing Gα15, read-out: Activity in FLIPR assay EC50): 4.14 | EC50 ([3]; R2/R3 U2OS cells expressing Gα15, read-out: Activity in FLIPR assay pEC50 (converted)): 69.3 µM | non-specific DMR effect on parental U2OS cells ([1]; highest concentration of sucralose (≥2 mM)): 20–40 pm

CN(C)CCCn1cc(C2=C(c3c[nH]c4ccccc34)C(=O)NC2=O)c2ccccc21 [GF109203x]
% inhibition of the carbachol DMR response ([4]; 100 μM carbachol, PTx overnight, GF109203x 5 μM, GW583340 10 μM, tyrphostin 1 μM, mean ± sd or average of two experiments): 67 ± 4% | % inhibition of the somatostatin DMR response ([5]; 10 μM somatostatin, PTx overnight, GF109203x 5 μM, GW583340 10 μM, tyrphostin 1 μM, mean ± sd or average of two experiments): 8% | % inhibition of the S1P DMR response ([6]; 1 μM S1P, PTx overnight, U0126 2 μM, GF109203x 5 μM, GW583340 10 μM, tyrphostin 1 μM, GSK269962 2 μM, mean ± sd or average of two experiments): 15% | % inhibition of the EGF DMR response ([7]; PTx overnight, wortmannin 200 nM, U0126 2 μM, GF109203x 5 μM, mean ± sd): 22 ± 11% | % inhibition of the sucralose DMR response ([8]; 2 mM sucralose, GF109203x 5 μM, GW583340 10 μM, tyrphostin 1 μM, mean ± sd or average of two experiments): −7 ± 10%

OC[C@H]1O[C@@](CO)(O[C@H]2O[C@H](CO)[C@@H](O)[C@H](O)[C@H]2O)[C@@H](O)[C@@H]1O [sucrose]
response in the FLIPR assay, in words ([3]; R2/R3 U2OS cells transduced with Gα15): readily detected | DMR response on parental U2OS cells, in words [1]: produced significant DMR responses

COc1cc2ncnc(Nc3cccc(Cl)c3)c2cc1OC [tyrphostin, Tyrphostin AG 1478]
inhibition at 1 µM ([4]; Homo sapiens, U2OS, read-out: % inhibition of the carbachol DMR response): -10.8% | inhibition at 1 µM ([5]; Homo sapiens, U2OS, read-out: % inhibition of the somatostatin DMR response): 3.1% | inhibition at 1 µM ([6]; Homo sapiens, U2OS, read-out: % inhibition of the S1P DMR response): -7% | effect on the EGF DMR response, in words ([7]; latrunculin A 1 μM, GW583340 10 μM, tyrphostin 1 μM, GSK269962 2 μM): abolished | inhibition at 1 µM ([8]; Homo sapiens, U2OS, read-out: % inhibition of the sucralose DMR response): 2.6%
